In article PMC8577775, “Small molecule allosteric inhibitors of RORγt block Th17-dependent inflammation and associated gene expression in vivo” (PLoS ONE, 2021):

Columns and labels:
[1] = test system: IMQ-induced skin inflammation in Balb/c mice; test: Imiquimod (IMQ)-induced skin inflammation model; type: in vivo, mouse; settings: for ear thickness: IMQ vehicle 0.21 ± 0.03 mm
Experimental: For IMQ-induced skin inflammation, wild-type (WT) Balb/c female mice, 5–8 weeks of age, were purchased from Charles River Laboratories. All mice were housed in pathogen-free conditions at Bristol Myers Squibb (Cambridge, MA). Aldara cream containing 5% imiquimod (Patterson Veterinary Supply, Inc; Devens, MA) was applied to the ears daily (11–14 mg) for 3 days. Mice were treated twice daily (BID) on days 1–4 per os (PO) with vehicle (0.5% methylcellulose/0.25% Tween80) or RORγt inhibitors at indicated doses immediately prior to Aldara application. Ear thickness was measured using micro-calipers. Tissues were harvested on day 4, 2 hours following the last compound dose. Naïve mice are completely untreated, receiving neither control vehicle for IMQ nor Compound.
For RNA isolation & gene expression, ears are collected on day 4 in RNAlater (Qiagen) and stored at 4°C until processed. Ears were homogenized using Procellys 24 homogenizer & hard tissue homogenizing beads (Bertin Instruments), 2 cycles of 30 seconds @ 6000 rpm in RLT lysis buffer according to manufacturer’s instructions. RNA was isolated using RNAeasy Plus MiniPrep columns (Qiagen) and cDNA generated using SuperScript VILO cDNA Synthesis kit (Invitrogen). Gene expression was quantified using TaqMan Fast Master Mix & and TaqMan FAM-MGB probe sets (Applied Biosystems): Gapdh, Mm99999915_g1, Il17a, Mm00439618_m1, Il17f, Mm00521423_m1, Il22, Mm01226722_g1 & Bclxl, Mm00437783_m1. QPCR reactions were run on QuantStudio 7 instrument. Relative quantification and fold changes were calculated using ddCT values against Gapdh and normalized to control-treated animals. For PDAC xenografts, RNA was isolated from tumor sections using Qiagen RNeasy kit (cat#74106), then cDNA was prepared using 2 μg of RNA and the high capacity RNA to cDNA kit (Applied Biosystems, cat#4387406) as per manufacturer’s instructions. Biomarker expression was determined using Taqman gene expression probes (S1 Table) and Universal master mix (ThermoFisher Scientific cat#4305719) with expression levels normalized to Gapdh.
For cytokine production, ears are removed, split in half using forceps and floated, dermis side-down, in DMEM media (Gibco) and incubated at 37° C for 24 hours. Following incubation, media was removed and cytokine production assessed by Luminex assay (Bio-Rad Laboratories).

[2] = test system: Bclxl expression in the thymus; test: Bclxl expression in thymus after oral dosing (QPCR); type: in vivo, mouse; settings: 100 mg/kg PO, C57Bl/6 female mice; S5 Fig
Experimental: Supplementary file pone.0248034.s009.tif: S5 Fig RORγt inhibitors reduce Bclxl expression in thymus of rodents. C57Bl/6 female mice were dosed PO with 100 mg/kg Compound 1, 2 or 3. Thymic tissues were collected from separate cohorts at 2, 8, 16 and 24 hours post-dose (n = 3 mice/timepoint). RNA was extracted from thymic tissues and Bclxl expression measured by QPCR. […] Time zero (‘0’) used as normalization timepoint and set to 1.0 RQ and mean set at 100% for % inhibition calculation. One-way ANOVA with Bonferroni correction for multiple comparisons used for statistical significance calculations. (TIF) Click here for additional data file.

psoriasis patients = test system: psoriasis patients; set-up: method as in PMID 29936103; settings: cited from earlier work
[3] = test system: plaque psoriasis patients; settings: cited from earlier work
[4] = test system: MOG35-55-induced EAE in C57BL/6 mice; test: Experimental autoimmune encephalomyelitis (EAE) model; type: in vivo, mouse; settings: 3 mg/kg QD
Experimental: EAE studies were conducted at Hooke Laboratories. WT female C57BL/6 mice (Taconic Labs) 9 weeks of age were inoculated on day 0 with MOG35-55 peptide (Hooke Kit™ MOG35-55/CFA Emulsion PTX) (EK-2110, Hooke Laboratories, Lawrence MA) followed by intraperitoneal (IP) injections of pertussis toxin at 2 and 24 hours. Mice were treated twice daily (BID, starting at day 1) per os (PO) with vehicle (0.5% MC/0.25% Tween80) or RORγt inhibitors at indicated doses. FTY720 (Gilenya) was dosed once daily (QD) at 3 mg/kg starting at day 1. EAE clinical scores were evaluated daily and scored from 0–5 according to Hooke Lab EAE scoring guidelines http://hookelabs.com/services/cro/eae/MouseEAEscoring.html. Mean clinical scores & body weight loss were assessed and statistical significance calculated by Wilcoxon’s non-parametric or 2-tailed Student’s t-test, respectively. All studies performed were approved in accordance with the Institutional Animal Care and Use Committee of Bristol Myers Squibb and complied according to Bristol Myers Squibb guidelines.

PDAC PDO model T031P [5] = test: In vitro organoid growth assay (CellTiter-Glo 3D), T031P; type: cell-based, human; settings: Homo sapiens, 72 h, treated 3 days post-plating
Experimental: (§1) Patient derived organoids were established as previously described. Briefly, PDX tumor chunks were minced then enzymatically digested into single cells by using a tumor dissociation Kit (Miltenyi, Cat# 130-095-929). Mouse and human cells were separated through magnetic separation, and isolated tumor cells were cultured on Matrigel-coated dishes. […]
(§2) Organoids were isolated and dissociated as described above. Cell numbers were counted by trypan blue exclusion and 5000 cells per well were plated on the Matrigel coated and pre-warmed 96-well plates. […] 100 μl of CellTiter-Glo® 3D reagent (Promega cat# G9682) was added to each well after desired time points and luminescence signal measured after 30 minutes.
(§3) Supplementary file pone.0248034.s010.tif: S6 Fig Schematic of Patient-derived organoids (PDO) growth & formation assays. […] After the indicated treatment schedule organoid growth or formation was assessed by CTG assay. […]

[6] = test system: human and mouse xenograft tumor growth; set-up: method as in PMID 30955884; settings: modulation of RORγt activity; cited from earlier work
PDAC PDO model T020P = test: In vitro organoid growth assay (CellTiter-Glo 3D), T020P; type: cell-based, human; settings: Homo sapiens, 72 h; treated 3 days post-plating; T020P
Experimental: as §1, §2, §3

PDAC PDO model T031P [7] = test: In vitro organoid formation assay (CellTiter-Glo 3D); type: cell-based; settings: Homo sapiens, PDO model not named in the sentence (Fig 8B: T020P and T031P)
Experimental: Patient derived organoids were established as previously described. Briefly, PDX tumor chunks were minced then enzymatically digested into single cells by using a tumor dissociation Kit (Miltenyi, Cat# 130-095-929). Mouse and human cells were separated through magnetic separation, and isolated tumor cells were cultured on Matrigel-coated dishes. Organoid cultures were maintained by growing on Matrigel in human complete maintenance media: Advanced DMEM/F12 media (Life Technology, Cat# 12634028), 10 mM HEPES (Life Technology, Cat# 15630–080), 1X Glutamax (Life Technology, Cat# 35050–061), 1X Antibiotic-Antimycotic (Life Technology, Cat# 15240–062), 10 mM Nicotinamide (Sigma-Aldrich, Cat# N0636-500G), 250 ng/mL R-Spondin-1 (Peprotech, Cat# 120–38), 100 ng/mL Noggin (Peprotech, Cat# 120-10C), 50 ng/mL EGF (Peprotech, Cat# AF-100-15), 100 ng/mL FGF10 (Peprotech, Cat# 100–26), […] (Sigma-Aldrich, Cat# G9020), 500 nM A83-01 (Sigma, Cat# SML0788), 20 μM Y-27632 (LC Laboratories, Cat# Y-5301), 1X B27 (Life Technology, Cat# 12587010), 10 ng/mL Wnt3a (R&D Systems, Cat# 5036-WN-010), 0.1% Methylcelluose (R&D Systems, Cat# HSC001) and Plasmocin (Invivogen, Cat# Ant-mpp) and were passaged every 10–14 days. Organoids were isolated from Matrigel (Corning, Cat# 08-774-406) in a cell recovery solution (Corning, Cat# CB-40253). Spheroid clusters were then dissociated into a single cell suspension with TrypLE (Gibco, Cat# 12605). […]
as §2, §3

[8] = test system: KP/C pancreatic tumors in C57Bl/6 mice; test: In vivo tumor growth suppression, KP/C mouse model; settings: single agent vs vehicle; 28 days of dosing
Experimental: Pancreatic tumor chunks from KP/C mice [20] on C57Bl/6 background were inoculated subcutaneously in the flank of syngeneic mice. […] Tumor volumes and body weight were measured twice each week.
To test whether inhibition of RORγt can lead to tumor growth inhibition we utilized the Kras^G12D/+/Trp53^null/Pdx1-cre (KP/C) mouse model of pancreatic cancer [20]. C57Bl/6 mice were inoculated in the flank with KP/C tumor chunks and enrolled in the study when the average tumor volume reached 200 mm^3. […] To evaluate target engagement, we examined changes in expression of a subset of potential RORγt target genes in tumor samples.

## O=C(O)[C@@H]1CCN(c2nn(C(=O)c3c(Cl)cccc3C(F)(F)F)c3cccc(F)c23)C[C@H]1O [Compound 1]
[1]; day 4, 45 mg/kg PO
  ear thickness: 0.17 ± 0.02 mm
[1]; day 4, 75 mg/kg PO
  ear thickness: 0.16 ± 0.008 mm
[1]; day 4, all dose levels tested (30, 45, 75 mg/kg PO)
  Th17-cytokine gene expression (Il17a, Il17f, Il22) in ear skin: reduced Th17-cytokine gene expression at all dose levels tested
[1]; ear tissue floats cultured 24 hours ex vivo, Luminex
  IMQ-induced IL-17A cytokine production in ear tissues: reduced IMQ-induced IL-17A cytokine production
[2]
  Bclxl expression in the thymus: modulation of Bclxl expression in the thymus

## CCOc1cc([C@@H](CS(C)(=O)=O)N2C(=O)c3cccc(NC(C)=O)c3C2=O)ccc1OC [Otezla]
Psoriasis patients; Week 4
  reduction of production of IL-17A, IL-17F, IL-22 and TNFα: 40–50%
Psoriasis patients; Week 16
  PASI-75 response rate: approximately 30%

## CCS(=O)(=O)c1ccc(CNC(=O)c2cnc3c(c2)CN(C[C@H]2CC[C@H](C(F)(F)F)CC2)[C@H]3C(C)C)nc1 [VTP-43742]
[3]; Week 4
  PASI-75 response rate: 25–30%
[3]
  reduction in IL-17A and IL-17F levels in plasma: 50–75%

## CCCCCCCCc1ccc(CCC(N)(CO)CO)cc1 [FTY720, reference compound]
[4]; vehicle day 12
  disease onset: 20 days
[4]; vehicle peak 3.08 ± 0.28
  EAE clinical score (0-5): 0.54 ± 0.234

## OC(c1ccc(-c2ccc(CN3CCN(Cc4ccncc4)CC3)cc2)c(F)c1)(C(F)(F)F)C(F)(F)F [SR2211, reference compound]
PDAC PDO model T031P [5]
  IC50: ~3000 nM
[6]
  human and mouse xenograft tumor growth: sufficient to inhibit
PDAC PDO model T020P
  IC50: ~3000 nM
PDAC PDO model T031P [7]
  IC50: ~1000 nM

## O=C(O)[C@@H]1CCC(c2nn(C(=O)c3c(Cl)cccc3C3CC3)c3cccc(F)c23)=C[C@H]1O [Compound 2]
[1]; oral administration, S4 Fig
  Th17-dependent gene expression and inflammation: inhibition of Th17-dependent gene expression and inflammation
[2]
  Bclxl expression in the thymus: modulation of Bclxl expression in the thymus

## N.N.[Cl][Pt][Cl] [cisplatin, reference compound]
[8]
  tumor volume: significantly reduced
